Measurements: article PMC11044139, “Comparative Study of Toxic Terpenoidal Aldehydes and Lactone Derivatives from the European Polypore Bondarzewia mesenterica” (ACS Omega, 2024)
Converted amounts (≈) assume the structure as drawn.

How the values were obtained:
Type in all cases: cell-based
[1] = system: Staphylococcus aureus (DSM 346); test: Antimicrobial assay (MIC), S. aureus; conditions: overnight incubation, n.i. = no inhibition up to 67 μg/mL
Procedure: (§1) The antimicrobial effects of the isolated compounds were determined using our established protocols.[19] Generally, an array of clinically relevant microorganisms consisting of bacteria, namely, S. aureus (DSM 346), A. baumanii (DSM 30008), B. subtilis (DSM 10), E. coli (DSM 1116), P. aeruginosa (PA14), C. violaceum (DSM 30191), and M. smegmatis (ATCC 700084), and fungi including M. hiemalis (DSM 2656), C. albicans (DSM 1665), R. glutinis (DSM 10134), S. pombe (DSM 70572), and P. anomala (DSM 6766), were used. […] The minimum inhibitory concentrations (MIC) were recorded after an overnight incubation as the lowest concentration under which no microbial growth was visualized. The microorganisms were obtained from the German Collection of Microorganisms and Cell Cultures (DSMZ, Braunschweig, Germany).

[2] = system: Escherichia coli (DSM 1116); test: Antimicrobial assay (MIC), E. coli; conditions: overnight incubation, n.i. = no inhibition up to 67 μg/mL
Procedure: as §1

[3] = system: Bacillus subtilis (DSM 10); test: Antimicrobial assay (MIC), B. subtilis; conditions: overnight incubation, n.i. = no inhibition up to 67 μg/mL
Procedure: as §1

[4] = system: Pseudomonas aeruginosa (PA14); test: Antimicrobial assay (MIC), P. aeruginosa; conditions: overnight incubation, n.i. = no inhibition up to 67 μg/mL
Procedure: as §1

[5] = system: Pichia anomala (DSM 6766); test: Antimicrobial assay (MIC), P. anomala; conditions: Hansenula anomala, DSM6766; Pichia anomala; overnight incubation; n.i. = no inhibition up to 67 μg/mL; read-out: MIC
Procedure: as §1

[6] = system: Candida albicans (DSM 1665); test: Antimicrobial assay (MIC), C. albicans; conditions: overnight incubation, n.i. = no inhibition up to 67 μg/mL
Procedure: as §1

[7] = system: Acinetobacter baumanii (DSM 30008); test: Antimicrobial assay (MIC), A. baumanii; conditions: overnight incubation, n.i. = no inhibition up to 67 μg/mL
Procedure: as §1

[8] = system: Chromobacterium violaceum (DSM 30191); test: Antimicrobial assay (MIC), C. violaceum; conditions: overnight incubation, n.i. = no inhibition up to 67 μg/mL
Procedure: as §1

[9] = system: Schizosaccharomyces pombe (DSM 70572); test: Antimicrobial assay (MIC), S. pombe; conditions: overnight incubation, n.i. = no inhibition up to 67 μg/mL
Procedure: as §1

[10] = system: Mucor hiemalis (DSM 2656); test: Antimicrobial assay (MIC), M. hiemalis; conditions: DSM2656, overnight incubation, n.i. = no inhibition up to 67 μg/mL, read-out: MIC
Procedure: as §1

[11] = system: Rhodotorula glutinis (DSM 10134); test: Antimicrobial assay (MIC), R. glutinis; conditions: DSM10134, overnight incubation, n.i. = no inhibition up to 67 μg/mL, read-out: MIC
Procedure: as §1

[12] = system: Mycobacterium smegmatis (ATCC 700084); test: Antimicrobial assay (MIC), M. smegmatis; conditions: Mycobacterium smegmatis; overnight incubation; n.i. = no inhibition up to 67 μg/mL
Procedure: as §1

all tested cell lines = test: Cytotoxicity (MTT) assay, all tested cell lines; conditions: tested cell lines
Description: MTT (3-(4,5-dimethylthiayol-2-yl)-2,5-diphenyltetrazolium bromide)-based assay was used to determine in vitro cytotoxicity as previously reported.[24] The tested mammalian cell lines included mouse fibroblasts (L929), endocervical adenocarcinoma (KB3.1), human lung carcinoma (A549), breast adenocarcinoma (MCF-7), prostate carcinoma (PC-3), and epidermoid carcinoma cells (A431). Epothilone B was used as a positive control.

[13] = system: P. anomala, M. hiemalis, and Rhodotorula glutinis; test: Antimicrobial assay (MIC), three fungi summarised in text; conditions: range over three fungi
Procedure: as §1

CC(C)=CCc1cc(C=O)ccc1O [Compound 9, 4-hydroxy-3(3-methylbut-2-enyl)benzaldehyde]
MIC [1]: n.i.
MIC [2]: n.i.
MIC [3]: n.i.
MIC [4]: n.i.
MIC [5]: 33.3 µg/mL (≈ 175 µM)
MIC [6]: n.i.
MIC [7]: n.i.
MIC [8]: n.i.
MIC [9]: n.i.
MIC [10]: 66.6 µg/mL (≈ 350 µM)
MIC [11]: 66.6 µg/mL (≈ 350 µM)
MIC [12]: n.i.
cytotoxic effects (in words) (all tested cell lines): no apparent cytotoxic effects
MIC values, range against P. anomala, M. hiemalis, and Rhodotorula glutinis [13]: 33.3 to 66.6 µg/mL
